Measured values from patent publication US12331048B2, “Pyrido-[3,4-d]pyridazine amine derivatives useful as NLRP3 inhibitors” (Ventus Therapeutics U.S., Inc., priority 2022, dated 2025).
Like-named read-outs stand apart in the source and are kept apart here.

Key:
[1] = biological target: T1, NLRP3 (Homo sapiens, UniProt Q96P20); assay: Human whole blood (hWB) NLRP3 assay; assay type: cell-based; conditions: LPS priming 1 μg/ml, ATP activation, read-out: hWB IC50 (raw activity data)
T1 construct: endogenous in cells
Method: Heparin lithium coated tubes were used to collect blood from volunteers. Blood samples were distributed on 96 well plates using 90 μl per well. Priming was performed by adding 5 μl of LPS (O26:B6; Sigma L-2654) at a final concentration of 1 μg/ml for 4.5 hours in a humidified incubator with 37° C., 5% CO2. Thirty minutes prior to NLRP3 activation, 5 μl of a 20× compound solution or vehicle (2% DMSO) was added to each well and plates were incubated on a shaker (450 rpm) in a humidified incubator with 37° C., 5% CO2. Activation was then performed by adding 3.3 μl of a 31×ATP solution per well. At the end of the 30 minutes stimulation, the plates were centrifuged (800 g, 10 min. room temperature) and the plasma from each well was frozen at −80° C. […] levels in the supernatant were analyzed using a mesoscale discovery assay (MSD K151TUK) according to the manufacturers' instructions. Human whole blood was drawn from healthy volunteers after obtaining written informed consent.
Table D assigns each compound a code for potency in the human whole blood (hWB) NLRP3 Assay: A or B. According to the code. […] The corresponding raw activity data is also included.

[2] = Brain levels (kp and kpu,u) after oral administration; assay type: in vivo, CDI mice; conditions: mice, 20 mpk PO; for Kp at 24 h: whole brain AUC over 24 h divided by plasma AUC
Method: The in vivo total brain to plasma ratio was assessed in CDI mice after oral administration of the compound. Blood was collected at several timepoints up to 24 h, and transferred into plastic micro centrifuge tubes with EDTA-K2 as anticoagulant. Blood samples were centrifuged at 4000 g for 5 minutes at 4° C. to obtain plasma, then immediately frozen and stored at −75±15° C. prior to analysis. Animals were terminally anaesthetized with a rising concentration of CO2 gas at about 1 minute. At selected timepoints, whole brains were removed from the skull, rinsed in cold PBS to remove blood, dried with clean gauze, then frozen in liquid nitrogen and kept at −75±15° C. before analysis. At the time of analysis, brain samples were homogenized with PBS by tissue weight (g) to PBS volume (mL) ratio 1:3. Plasma and brain drug levels were quantified by LC/MS/MS on a AB Sciex Triple Quad 5500+ instrument, after separation on a HALO 160A ES-C18, 2.7 μm 2.1-50 mm column. Quantitation was performed using a calibration curve prepared in blank plasma or blank brain homogenate. The software WinNonlin (Phoenix™) was used for pharmacokinetic analysis from the concentrations versus time data, including the AUCinf and AUClast. The Kp ratio (total brain concentration over total plasma concentration) was calculated as (AUCtot,br)/(AUCtot,pl).
The unbound brain exposure was assessed as Kpuu, which is the free brain/free plasma concentration ratio (Cu,br/Cu,pl). The Cu,br/Cu,pl ratios were obtained from in vivo total brain to plasma ratios (Ctot,br/Ctot,pl) by using in vitro determined Fu,br and Fu,pl.
Plasma protein binding and brain homogenate protein binding were measured by equilibrium dialysis in a HTDialysis plate. The dialysis membranes were soaked in ultrapure water for 60 minutes to separate strips, then in 20% ethanol for 20 minutes, finally in dialysis buffer for 20 minutes. The dialysis set up was assembled according to the manufacturer's instruction. Each cell received 150 μL of plasma or brain homogenate spiked with 1 mM of compound, and dialyzed against an equal volume of dialysis buffer (PBS). The dialysis plate was sealed and incubated in an incubator at 37° C. with 5% CO2 at 100 rpm for 6 hours. At the end of incubation, compound concentration was measured in both chambers by LC-MS/MS on a Triple Quad™ 5500 from AB Inc after separation on a XSelect Hss T3 2.5μ (2.1×30 mm) column. Free fraction (Fu) was calculated as (Peak Area Ratio buffer chamber/Peak Area Ratio plasma chamber).
Kpuu was calculated as (AUCtot,br×Fu,br)/(AUCtot,pl×Fu,pl).
The below table also assigns each compound a code for kp and kpu,u values: A or B. According to the code. A represents a value of >0.3 and B represents a value of ≤0.3. […] The kpu,u was then calculated upon correcting this kp value with mouse plasma protein binding and mouse brain homogenates binding. A Kpu,u value >0.3 is brain penetrant, and Kpu,u value less than or equal to 0.3 is not brain penetrant. N.D.=not determined. The corresponding raw kp and kpu,u data is also included.

T1 sequence (Q96P20 whole entry): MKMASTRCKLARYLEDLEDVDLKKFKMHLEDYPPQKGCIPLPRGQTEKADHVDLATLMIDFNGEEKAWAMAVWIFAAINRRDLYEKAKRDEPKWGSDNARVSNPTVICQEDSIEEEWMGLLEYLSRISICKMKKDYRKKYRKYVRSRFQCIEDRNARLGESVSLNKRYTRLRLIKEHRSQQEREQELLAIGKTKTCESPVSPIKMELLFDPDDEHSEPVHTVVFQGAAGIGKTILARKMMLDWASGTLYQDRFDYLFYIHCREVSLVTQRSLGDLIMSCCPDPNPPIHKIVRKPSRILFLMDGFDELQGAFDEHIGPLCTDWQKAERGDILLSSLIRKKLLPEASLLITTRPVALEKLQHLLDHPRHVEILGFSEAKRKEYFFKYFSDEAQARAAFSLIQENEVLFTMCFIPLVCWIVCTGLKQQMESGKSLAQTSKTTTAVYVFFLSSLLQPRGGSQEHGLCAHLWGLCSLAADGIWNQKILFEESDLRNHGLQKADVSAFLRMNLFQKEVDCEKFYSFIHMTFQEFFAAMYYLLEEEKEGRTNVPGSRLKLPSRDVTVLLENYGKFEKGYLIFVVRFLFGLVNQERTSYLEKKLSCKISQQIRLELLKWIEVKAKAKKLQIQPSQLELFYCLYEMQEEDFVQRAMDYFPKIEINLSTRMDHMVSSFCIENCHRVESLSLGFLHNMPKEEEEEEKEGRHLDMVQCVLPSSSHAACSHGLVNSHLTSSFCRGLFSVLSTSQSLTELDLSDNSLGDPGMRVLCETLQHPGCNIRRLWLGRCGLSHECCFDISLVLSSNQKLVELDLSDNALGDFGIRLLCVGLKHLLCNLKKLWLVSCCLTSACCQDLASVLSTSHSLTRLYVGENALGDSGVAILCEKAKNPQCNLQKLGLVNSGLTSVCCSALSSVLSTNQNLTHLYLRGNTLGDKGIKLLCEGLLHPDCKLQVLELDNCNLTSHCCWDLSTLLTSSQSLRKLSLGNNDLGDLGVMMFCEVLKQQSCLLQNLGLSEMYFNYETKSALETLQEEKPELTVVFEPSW

| SMILES | IC50 [1] [µM] | further results |
| --- | --- | --- |
| CC1(C)COC[C@H]1Nc1nnc(-c2ccc(Cl)cc2O)c2ccncc12 (single isomer, unassigned) [Compound 1B*] | 1.8 |  |
| CC1(C)COCC[C@H]1Nc1nnc(-c2ccc(Cl)cc2O)c2ccncc12 (single isomer, unassigned) [Compound 3B*] | 11 |  |
| CC1(C)C[C@H](Nc2nnc(-c3ccc(Cl)cc3O)c3ccncc23)CCO1 (single isomer, unassigned) [Compound 4B*] | 1.7 |  |
| CN1CCO[C@H](CNc2nnc(-c3ccc(C(F)(F)F)cc3O)c3ccncc23)C1 (single isomer, unassigned) [Compound 6B*] | 1.26 |  |
| Cc1ccc(-c2nnc(N[C@@H]3CCC(C)(C)OC3)c3cnccc23)c(O)c1 (single isomer, unassigned) [Compound 10B*] | 7.9 |  |
| CC1(C)C[C@H](Nc2nnc(-c3ccc(C(F)(F)F)cc3O)c3ccncc23)CCO1 (single isomer, unassigned) [Compound 11B*] | 10 |  |
| Cc1ccc(-c2nnc(N[C@@H]3COC(C)(C)C3)c3cnccc23)c(O)c1F (single isomer, unassigned) [Compound 12B] | 3.2 |  |
| Cc1ccc(-c2nnc(N[C@@H]3CCOCC3(C)C)c3cnccc23)c(O)c1 (single isomer, unassigned) [Compound 13B] | 9.8 |  |
| Cc1ccc(-c2nnc(N[C@@H]3CCOC(C)(C)C3)c3cnccc23)c(O)c1 (single isomer, unassigned) [Compound 14B] | 3.6 |  |
| CC1(C)COCC[C@H]1Nc1nnc(-c2ccc(C(F)(F)F)cc2O)c2ccncc12 (single isomer, unassigned) [Compound 15B] | 18 |  |
| CC1(C)C[C@H](Nc2nnc(-c3ccc(C(F)F)cc3O)c3ccncc23)CCO1 (single isomer, unassigned) [Compound 16B*] | 12 |  |
| CC1(C)COCC[C@H]1Nc1nnc(-c2ccc(C(F)F)cc2O)c2ccncc12 (single isomer, unassigned) [Compound 17B] | 2.4 |  |
| C[C@H]1COCC[C@@H]1Nc1nnc(-c2ccc(Cl)cc2O)c2ccncc12 (single isomer, unassigned) [Compound 18C*] | 1.2 |  |
| C[C@@H]1COCC[C@@H]1Nc1nnc(-c2ccc(Cl)cc2O)c2ccncc12 (single isomer, unassigned) [Compound 18D*] | 6.2 |  |
| Oc1cc(C(F)(F)F)ccc1-c1nnc(N[C@@H]2COC3(CC3)C2)c2cnccc12 (single isomer, unassigned) [Compound 19B] | 1.2 |  |
| CC1(C)CC[C@@H](Nc2nnc(-c3ccc(C(F)F)cc3O)c3ccncc23)CO1 (single isomer, unassigned) [Compound 20B] | 3.4 |  |
| Cc1cc(O)c(-c2nnc(N[C@@H]3COC(C)(C)C3)c3cnccc23)c(F)c1 (single isomer, unassigned) [Compound 21B] | 2.3 |  |
| CC1(C)OCC[C@@H]1Nc1nnc(-c2ccc(C(F)(F)F)cc2O)c2ccncc12 (single isomer, unassigned) [Compound 22B] | 5.9 |  |
| CC1(C)C[C@H](Nc2nnc(-c3ccc(C(F)F)cc3O)c3ccncc23)CO1 (single isomer, unassigned) [Compound 23B] |  | Kp at 24 h ([2]; CDI, mouse, brain / plasma, po, 20 mg/kg, read-out: kp (code)): ≤ 0.3; Kp at 24 h ([2]; CDI, mouse, brain / plasma, po, 20 mg/kg, read-out: kp (raw)): 0.28; Kpu,u (unbound brain-to-plasma ratio) ([2]; CDI, mouse, brain / plasma, po, 20 mg/kg, kp corrected with mouse plasma protein binding and mouse brain homogenate binding): 0.09; kpu,u (code) ([2]; kp corrected with mouse plasma protein binding and mouse brain homogenate binding): B (B represents a value of ≤0.3) |
| C[C@H]1C[C@@H](Nc2nnc(-c3ccc(Cl)cc3O)c3ccncc23)CCO1 (single isomer, unassigned) [Compound 25B*] | 0.85 |  |
| Cc1cc(O)c(-c2nnc(N[C@@H]3COC(C)(C)C3)c3cnccc23)c(Cl)c1 (single isomer, unassigned) [Compound 26B*] | 1.3 |  |
| Cc1ccc(-c2nnc(N[C@@H]3COC(C)(C)C3)c3cnccc23)c(O)c1 [Compound 5B, (S)-2-(4-((5,5-dimethyltetrahydrofuran-3-yl)amino)pyrido[3,4-d]pyridazin-1-yl)-5-methylphenol] | 0.21 |  |
